# Activity calls are given as the source filed them. No rule for the calls is given here.
# Tested on: rodent carcinogenicity bioassays, tumor incidence
# Assay: CCRIS carcinogenicity studies
# Description: The CCRIS database contains chemical records with carcinogenicity, mutagenicity, tumor promotion, and tumor inhibition test results. It was developed by the National Cancer Institute (NCI). Data are derived from studies cited in primary journals, current awareness tools, NCI reports, and other sources. Test results have been reviewed by experts in carcinogenesis and mutagenesis.
# CCRIS provides historical information from the years 1985 - 2011. It is no longer updated.
# This is an archive assay for CCRIS carcinogenicity studies.
smiles,measurement,setting,value
C=Cc1ccccc1,carcinogen call,"Species: MOUSE, Strain/Sex: B6C3F1/FEMALE, Route: GAVAGE, Dose: 0, 150, 300 MG/KG FOR 78 WK (STUDY DURATION: 91 WK), Dose: 0, 150, 300 MG/KG FOR 78 WK (STUDY DURATION: 91 WK)",inactive; negative
same,carcinogen call,"Species: MOUSE, Strain/Sex: B6C3F1/MALE, Route: GAVAGE, Dose: 0, 150, 300 MG/KG FOR 78 WK (STUDY DURATION: 91 WK), Dose: 0, 150, 300 MG/KG FOR 78 WK (STUDY DURATION: 91 WK), Tumor Site: Type of Lesion: LUNG: ADENOMA, CARCINOMA",equivocal
same,carcinogen call,"Species: MOUSE, Strain/Sex: C57BL/FEMALE, Route: GAVAGE, Dose: 0, 300 MG/KG BW IN 0.1 ML OLIVE OIL FOR LIFE BEGINNING POST WEANING ADMINISTERED TO OFFSPRING OF FEMALES GIVEN 1350 MG/K",inactive; negative
same,carcinogen call,"Species: MOUSE, Strain/Sex: C57BL/FEMALE, Route: GAVAGE, Dose: 0, 300 MG/KG BW IN 0.1 ML OLIVE OIL ONCE ON DAY 17 OF PREGNANCY (STUDY DURATION: 120 WK)",inactive; negative
same,carcinogen call,"Species: MOUSE, Strain/Sex: C57BL/MALE, Route: GAVAGE, Dose: 0, 300 MG/KG BW IN 0.1 ML OLIVE OIL FOR LIFE BEGINNING POST WEANING ADMINISTERED TO OFFSPRING OF FEMALES GIVEN 300 MG/KG",inactive; negative
same,carcinogen call,"Species: MOUSE, Strain/Sex: CD-1/FEMALE, Route: INHALATION, Dose: 0, 20, 40, 80, 160 PPM IN CHAMBER FOR 6 HR/D 5D/WK FOR 98 WK (STUDY DURATION: 98 WK), Dose: 0, 20, 40, 80, 160 PPM IN CHAMBER FOR 6 HR/D 5D/WK FOR 98 WK (STUDY DURATION: 98 WK), Tumor Site: Type of Lesion: LUNG: BRONCHIOLOALVEOLAR ADENOMA, BRONCHIOLOALVEOLAR CARCINOMA",active; positive
same,carcinogen call,"Species: MOUSE, Strain/Sex: CD-1/MALE, Route: INHALATION, Dose: 0, 20, 40, 80, 160 PPM IN CHAMBER FOR 6 HR/D 5D/WK FOR 104 WK (STUDY DURATION: 104 WK), Dose: 0, 20, 40, 80, 160 PPM IN CHAMBER FOR 6 HR/D 5D/WK FOR 104 WK (STUDY DURATION: 104 WK), Tumor Site: Type of Lesion: LUNG: BRONCHIOLOALVEOLAR ADENOMA",active; positive
same,carcinogen call,"Species: MOUSE, Strain/Sex: O20/FEMALE, Route: GAVAGE, Dose: 0, 1350 MG/KG BW IN 0.1 ML OLIVE OIL FOR 16 WK POST WEANING ADMINISTERED TO OFFSPRING OF FEMALES GIVEN 1350 MG/KG ON DAY, Tumor Site: Type of Lesion: LUNG: ADENOMA OR CARCINOMA",active; positive
same,carcinogen call,"Species: MOUSE, Strain/Sex: O20/FEMALE, Route: GAVAGE, Dose: 0, 1350 MG/KG BW IN 0.1 ML OLIVE OIL ONCE ON DAY 17 OF PREGNANCY (STUDY DURATION: 120 WK)",inactive; negative
same,carcinogen call,"Species: MOUSE, Strain/Sex: O20/MALE,FEMALE, Route: GAVAGE, Tumor Site: Type of Lesion: LUNG: ADENOMA, ADENOCARCINOMA",active; positive
same,carcinogen call,"Species: MOUSE, Strain/Sex: O20/MALE, Route: GAVAGE, Dose: 0, 1350 MG/KG BW IN 0.1 ML OLIVE OIL FOR 16 WK POST WEANING ADMINISTERED TO OFFSPRING OF FEMALES GIVEN 1350 MG/KG ON DAY, Tumor Site: Type of Lesion: LUNG: ADENOMA OR CARCINOMA",active; positive
same,carcinogen call,"Species: MOUSE, Strain/Sex: STRAIN-A/FEMALE, Route: INTRAPERITONEAL, Dose: 0, 10 UMOL IN 0.1 ML OLIVE OIL 3/WK FOR 20 DOSES (TOTAL DOSE: 200 UMOL) (STUDY DURATION: 27 WK)",inactive; negative
same,carcinogen call,"Species: RAT, Strain/Sex: BDIV/FEMALE, Route: GAVAGE, Dose: 0, 500 MG/KG BW IN 0.3 ML OLIVE OIL FOR LIFE BEGINNING POST WEANING ADMINISTERED TO OFFSPRING OF FEMALES GIVEN 1350 MG/K",inactive; negative
same,carcinogen call,"Species: RAT, Strain/Sex: BDIV/FEMALE, Route: GAVAGE, Dose: 0, 1350 MG/KG BW IN 0.3 ML OLIVE OIL ONCE ON DAY 17 OF PREGNANCY (STUDY DURATION: 120 WK)",inactive; negative
same,carcinogen call,"Species: RAT, Strain/Sex: BDIV/MALE, Route: GAVAGE, Dose: 0, 500 MG/KG BW IN 0.3 ML OLIVE OIL FOR LIFE BEGINNING POST WEANING ADMINISTERED TO OFFSPRING OF FEMALES GIVEN 1350 MG/K",inactive; negative
same,carcinogen call,"Species: RAT, Strain/Sex: F344/FEMALE, Route: GAVAGE, Dose: 0, 500 MG/KG FOR 103 WK (STUDY DURATION: 104 WK), 1,000, 2,000 MG/KG FOR 78 WK (STUDY DURATION: 105 WK), Dose: 0, 500 MG/KG FOR 103 WK (STUDY DURATION: 104 WK), 1,000, 2,000 MG/KG FOR 78 WK (STUDY DURATION: 105 WK)",inactive; negative
same,carcinogen call,"Species: RAT, Strain/Sex: F344/MALE, Route: GAVAGE, Dose: 0, 500 MG/KG FOR 103 WK (STUDY DURATION: 104 WK), 1,000, 2,000 MG/KG FOR 78 WK (STUDY DURATION: 105 WK), Dose: 0, 500 MG/KG FOR 103 WK (STUDY DURATION: 104 WK), 1,000, 2,000 MG/KG FOR 78 WK (STUDY DURATION: 105 WK)",inactive; negative
same,carcinogen call,"Species: RAT, Strain/Sex: SPRAGUE-DAWLEY/FEMALE, Route: GAVAGE, Dose: 0, 50, 250 MG/KG BW IN OLIVE OIL 1/D 4-5 D/WK FOR 52 WK (STUDY DURATION: LIFETIME), Dose: 0, 50, 250 MG/KG BW IN OLIVE OIL 1/D 4-5 D/WK FOR 52 WK (STUDY DURATION: LIFETIME), Tumor Site: Type of Lesion: [BRAIN WAS ONLY SITE EVALUATED]",inactive; negative
same,carcinogen call,"Species: RAT, Strain/Sex: SPRAGUE-DAWLEY/FEMALE, Route: INHALATION, Dose: 0, 25, 50, 100, 200, 300 PPM 4 HR/D, 5 D/WK FOR 52 WK (STUDY DURATION: LIFESPAN), Dose: 0, 25, 50, 100, 200, 300 PPM 4 HR/D, 5 D/WK FOR 52 WK (STUDY DURATION: LIFESPAN), Tumor Site: Type of Lesion: MAMMARY GLAND: BENIGN TUMOR, MALIGNANT TUMOR",active; positive
same,carcinogen call,"Species: RAT, Strain/Sex: SPRAGUE-DAWLEY/FEMALE, Route: INHALATION, Dose: 0, 25, 50, 100, 200, 300 PPM IN AIR 4 HR/D 5 D/WK FOR 52 WK (STUDY DURATION: LIFETIME), Dose: 0, 25, 50, 100, 200, 300 PPM IN AIR 4 HR/D 5 D/WK FOR 52 WK (STUDY DURATION: LIFETIME), Tumor Site: Type of Lesion: [BRAIN WAS ONLY SITE EVALUATED]",inactive; negative
same,carcinogen call,"Species: RAT, Strain/Sex: SPRAGUE-DAWLEY/FEMALE, Route: INTRAGASTRIC, Dose: 0, 50, 250 MG/KG IN OLIVE OIL 1/D, 4-5 D/WK FOR 52 WK (STUDY DURATION: LIFESPAN), Dose: 0, 50, 250 MG/KG IN OLIVE OIL 1/D, 4-5 D/WK FOR 52 WK (STUDY DURATION: LIFESPAN)",inactive; negative
same,carcinogen call,"Species: RAT, Strain/Sex: SPRAGUE-DAWLEY/FEMALE, Route: INTRAPERITONEAL, Dose: 0, 50 MG/RAT IN OLIVE OIL, 1/2 MO FOR 8 MO (STUDY DURATION: LIFESPAN)",inactive; negative
same,carcinogen call,"Species: RAT, Strain/Sex: SPRAGUE-DAWLEY/FEMALE, Route: SUBCUTANEOUS, Dose: 0, 50 MG/RAT IN OLIVE OIL ONCE (STUDY DURATION: LIFESPAN)",inactive; negative
same,carcinogen call,"Species: RAT, Strain/Sex: SPRAGUE-DAWLEY/MALE, Route: GAVAGE, Dose: 0, 50, 250 MG/KG BW IN OLIVE OIL 1/D 4-5 D/WK FOR 52 WK (STUDY DURATION: LIFETIME), Dose: 0, 50, 250 MG/KG BW IN OLIVE OIL 1/D 4-5 D/WK FOR 52 WK (STUDY DURATION: LIFETIME), Tumor Site: Type of Lesion: [BRAIN WAS ONLY SITE EVALUATED]",inactive; negative
same,carcinogen call,"Species: RAT, Strain/Sex: SPRAGUE-DAWLEY/MALE, Route: INHALATION, Dose: 0, 25, 50, 100, 200, 300 PPM 4 HR/D, 5 D/WK FOR 52 WK (STUDY DURATION: LIFESPAN), Dose: 0, 25, 50, 100, 200, 300 PPM 4 HR/D, 5 D/WK FOR 52 WK (STUDY DURATION: LIFESPAN)",inactive; negative
same,carcinogen call,"Species: RAT, Strain/Sex: SPRAGUE-DAWLEY/MALE, Route: INHALATION, Dose: 0, 25, 50, 100, 200, 300 PPM IN AIR 4 HR/D 5 D/WK FOR 52 WK (STUDY DURATION: LIFETIME), Dose: 0, 25, 50, 100, 200, 300 PPM IN AIR 4 HR/D 5 D/WK FOR 52 WK (STUDY DURATION: LIFETIME), Tumor Site: Type of Lesion: [BRAIN WAS ONLY SITE EVALUATED]",inactive; negative
same,carcinogen call,"Species: RAT, Strain/Sex: SPRAGUE-DAWLEY/MALE, Route: INTRAGASTRIC, Dose: 0, 50, 250 MG/KG IN OLIVE OIL 1/D, 4-5 D/WK FOR 52 WK (STUDY DURATION: LIFESPAN), Dose: 0, 50, 250 MG/KG IN OLIVE OIL 1/D, 4-5 D/WK FOR 52 WK (STUDY DURATION: LIFESPAN)",inactive; negative
same,carcinogen call,"Species: RAT, Strain/Sex: SPRAGUE-DAWLEY/MALE, Route: INTRAPERITONEAL, Dose: 0, 50 MG/RAT IN OLIVE OIL, 1/2 MO FOR 8 MO (STUDY DURATION: LIFESPAN)",inactive; negative
same,carcinogen call,"Species: RAT, Strain/Sex: SPRAGUE-DAWLEY/MALE, Route: SUBCUTANEOUS, Dose: 0, 50 MG/RAT IN OLIVE OIL ONCE (STUDY DURATION: LIFESPAN)",inactive; negative
same,carcinogen call,"Species: RAT, Strain/Sex: STRAIN-CD/FEMALE, Route: INHALATION, Dose: 0, 50, 200, 500, 1000 PPM 6HR/D 5 D/WK FOR 104 WK (STUDY DURATION:107 WK), Dose: 0, 50, 200, 500, 1000 PPM 6HR/D 5 D/WK FOR 104 WK (STUDY DURATION:107 WK)",inactive; negative
same,carcinogen call,"Species: RAT, Strain/Sex: STRAIN-CD/MALE, Route: INHALATION, Dose: 0, 50, 200, 500, 1000 PPM 6 HR/D 5 D/WK FOR 104 WK (STUDY DURATION:107 WK), Dose: 0, 50, 200, 500, 1000 PPM 6 HR/D 5 D/WK FOR 104 WK (STUDY DURATION:107 WK)",inactive; negative

# From PubChem BioAssay AID1259411 (Chemical Carcinogenesis Research Information System (CCRIS), 2018)
